Structures are written as SMILES.

For the experiment, the target named is T1, human TLR7 (Homo sapiens, UniProt Q9NYK1).
T1 construct: host or cells: HEK293 (HEK-Blue hTLR7)
T1 sequence (Q9NYK1 27-1049): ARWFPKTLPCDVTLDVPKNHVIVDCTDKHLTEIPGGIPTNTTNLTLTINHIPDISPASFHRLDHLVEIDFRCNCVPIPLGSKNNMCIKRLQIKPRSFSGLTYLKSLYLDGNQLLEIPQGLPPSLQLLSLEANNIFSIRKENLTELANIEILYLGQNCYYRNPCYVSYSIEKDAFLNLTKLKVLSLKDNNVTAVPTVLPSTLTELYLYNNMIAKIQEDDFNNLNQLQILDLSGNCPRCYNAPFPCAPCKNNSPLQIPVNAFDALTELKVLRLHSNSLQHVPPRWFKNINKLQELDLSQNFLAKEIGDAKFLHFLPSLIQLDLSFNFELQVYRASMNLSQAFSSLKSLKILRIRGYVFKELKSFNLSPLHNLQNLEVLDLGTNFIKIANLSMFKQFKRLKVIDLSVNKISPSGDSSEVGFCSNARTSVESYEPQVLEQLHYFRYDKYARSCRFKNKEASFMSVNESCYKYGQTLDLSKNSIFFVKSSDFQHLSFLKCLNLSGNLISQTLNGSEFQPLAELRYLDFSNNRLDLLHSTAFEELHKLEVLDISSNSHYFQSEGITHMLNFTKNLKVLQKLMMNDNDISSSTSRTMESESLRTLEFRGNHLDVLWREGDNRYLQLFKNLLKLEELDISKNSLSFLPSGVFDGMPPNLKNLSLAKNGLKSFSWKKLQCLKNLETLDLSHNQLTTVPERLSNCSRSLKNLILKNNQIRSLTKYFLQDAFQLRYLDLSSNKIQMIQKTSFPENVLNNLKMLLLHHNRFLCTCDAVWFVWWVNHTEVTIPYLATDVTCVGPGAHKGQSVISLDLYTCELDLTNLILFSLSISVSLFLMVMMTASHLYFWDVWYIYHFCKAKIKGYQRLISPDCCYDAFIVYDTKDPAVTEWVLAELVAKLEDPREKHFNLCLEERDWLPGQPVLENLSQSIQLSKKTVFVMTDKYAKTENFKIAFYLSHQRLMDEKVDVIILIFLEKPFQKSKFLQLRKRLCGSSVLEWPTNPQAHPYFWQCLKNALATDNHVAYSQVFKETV
As to the kind of experiment: HEK293-Blue hTLR7 Reporter Assay (QUANTI-BLUE, SEAP readout). The experiment is classed as cell-based. Conditions: HEK-Blue-hTLR7 cells, 24 hrs treatment, Table 1, B1-B232. The method in brief: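 HEK-Blue-hTLR7 cells expressing NF-κB/AP-1-driven SEAP, 4×10^4 cells/well, treated 24 h at 37° C with increasing compound concentrations. Supernatant SEAP measured with Quanti-blue substrate (10-30 min, 37° C) at 620-655 nm; EC50 from sigmoidal dose-response fit.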
Broadly, the EC50 is the concentration at which the effect is half-maximal. In turn, `CC[C@H](C)Oc1nc(N)c2ncc(Cc3cnc(N4CCN(C(=O)CN(C)C)CC4)c(C)c3)n2n1` [Compound B145, (S)-1-(4-(5-((4-amino-2-(sec-butoxy)imidazo[2,1-f] [1,2,4]triazin-7-yl)methyl)-3-methylpyridin-2-yl)piperazin-1-yl)-2-(dimethylamino)ethan-1-one] returned an EC50 of 8 nM.

Regarding `CC[C@H](C)Oc1nc(N)c2ncc(Cc3cnc(N4CCN(C(=O)CNC)CC4)c(C)c3)n2n1` [Compound B146, (S)-1-(4-(5-((4-amino-2-(sec-butoxy)imidazo[2,1-f][1,2,4]triazin-7-yl)methyl)-3-methylpyridin-2-yl)piperazin-1-yl)-2-(methylamino)ethan-1-one], the midpoint of the response, the EC50, lay at 10 nM.

Turning to `CCCC(C)Nc1nc(N)c2ncc(Cc3cnc(N4CCN(C(=O)CNC)CC4)c(C)c3)n2n1` (stereo not drawn) [Compound B149, 1-(4-(5-((4-amino-2-(pentan-2-ylamino)imidazo[2,1-f][1,2,4]triazin-7-yl)methyl)-3-methylpyridin-2-yl)piperazin-1-yl)-2-(methylamino)ethan-1-one], the EC50 was determined as 6.3 nM.

As for `CCCC(C)Nc1nc(N)c2ncc(Cc3cnc(N4CCNCC4)c(C)c3)n2n1` (stereo not drawn) [Compound B150, 7-((5-methyl-6-(piperazin-1-yl)pyridin-3-yl)methyl)-N2-(pentan-2-yl)imidazo[2,1-f][1,2,4]triazine-2,4-diamine], the EC50 is 2.5 nM.

Turning to `CCCC(C)Nc1nc(N)c2ncc(Cc3cnc(N4CCN(C(=O)CN(C)C)CC4)c(C)c3)n2n1` (stereo not drawn) [Compound B151, 1-(4-(5-((4-amino-2-(pentan-2-ylamino)imidazo[2,1-f][1,2,4]triazin-7-yl)methyl)-3-methylpyridin-2-yl)piperazin-1-yl)-2-(dimethylamino)ethan-1-one], the midpoint of the response, the EC50, lay at 3 nM. This EC50 and that of the compound before are within 1.5-fold of each other.

The compound `CC[C@@H](C)Oc1nc(N)c2ncc(Cc3cnc(N4CCNCC4)c(C)c3)n2n1` [Compound B152, (R)-2-(sec-butoxy)-7-((5-methyl-6-(piperazin-1-yl)pyridin-3-yl)methyl)imidazo[2,1-f][1,2,4]triazin-4-amine] displayed an EC50 of 56 nM.

`CC[C@@H](C)Oc1nc(N)c2ncc(Cc3cnc(N4CCN(C(=O)CN(C)C)CC4)c(C)c3)n2n1` [Compound B153, (R)-1-(4-(5-((4-amino-2-(sec-butoxy)imidazo[2,1-f][1,2,4]triazin-7-yl)methyl)-3-methylpyridin-2-yl)piperazin-1-yl)-2-(dimethylamino)ethan-1-one] showed an EC50 of 49 nM. The EC50 values of the last two compounds are within 1.5-fold of each other.

In the case of `CCC[C@H](C)Oc1nc(N)c2ncc(Cc3cnc(N4CCN(C(=O)CNC)CC4)c(C)c3)n2n1` [Compound B154, (S)-1-(4-(5-((4-amino-2-(pentan-2-yloxy)imidazo[2,1-f][1,2,4]triazin-7-yl)methyl)-3-methylpyridin-2-yl)piperazin-1-yl)-2-(methylamino)ethan-1-one], it took 1.6 nM to reach a half-maximal effect (EC50).

With `CCC(C)Oc1nc(N)c2ncc(Cc3cnc(N4CCN(C(=O)CN(C)C)CC4)c(C)c3)n2n1` (stereo not drawn) [Compound B155, 1-(4-(5-((4-amino-2-(sec-butoxy)imidazo[2,1-f][1,2,4]triazin-7-yl)methyl)-3-methylpyridin-2-yl)piperazin-1-yl)-2-(dimethylamino)ethan-1-one], the EC50 was 8.3 nM.

`CCC(C)Oc1nc(N)c2ncc(Cc3cnc(N4CCN(C(=O)CNC)CC4)c(C)c3)n2n1` (stereo not drawn) [Compound B156, 1-(4-(5-((4-amino-2-(sec-butoxy)imidazo[2,1-f][1,2,4]triazin-7-yl)methyl)-3-methylpyridin-2-yl)piperazin-1-yl)-2-(methylamino)ethan-1-one] yielded an EC50 of 9.7 nM.

Take `CC[C@H](C)Oc1nc(N)c2ncc(Cc3cnc(N4CCNCC4)c(C)c3)n2n1` [Compound B158, (S)-2-(sec-butoxy)-7-((5-methyl-6-(piperazin-1-yl)pyridin-3-yl)methyl)imidazo[2,1-f][1,2,4]triazin-4-amine]: the midpoint of the response, the EC50, lay at 6.5 nM. The EC50 values of the last two compounds are within 1.5-fold of each other.

Compound `CC[C@@H](C)Oc1nc(N)c2ncc(Cc3cnc(N4CCN(C(=O)CNC)CC4)c(C)c3)n2n1` [Compound B159, (R)-1-(4-(5-((4-amino-2-(sec-butoxy)imidazo[2,1-f] [1,2,4]triazin-7-yl)methyl)-3-methylpyridin-2-yl)piperazin-1-yl)-2-(methylamino)ethan-1-one] yielded an EC50 of 48 nM.

For the compound `CCC[C@@H](C)Oc1nc(N)c2ncc(Cc3cnc(N4CCN(C(=O)CNC)CC4)c(C)c3)n2n1` [Compound B160, (R)-1-(4-(5-((4-amino-2-(pentan-2-yloxy)imidazo[2,1-f][1,2,4]triazin-7-yl)methyl)-3-methylpyridin-2-yl)piperazin-1-yl)-2-(methylamino)ethan-1-one], a half-maximal effect (EC50) was put at 25 nM.

On to `CCCCOc1nc(N)c2ncc(Cc3cnc(N4CCC(NC)CC4)c(C)c3)n2n1` [Compound B161, 2-butoxy-7-((5-methyl-6-(4-(methylamino)piperidin-1-yl)pyridin-3-yl)methyl)imidazo[2,1-f][1,2,4]triazin-4-amine], for which the EC50 was 11 nM.

For the compound `CCC(CC)Oc1nc(N)c2ncc(Cc3cnc(N4CCNCC4)c(C)c3)n2n1` [Compound B162, 7-((5-methyl-6-(piperazin-1-yl)pyridin-3-yl)methyl)-2-(pentan-3-yloxy)imidazo[2,1-f][1,2,4]triazin-4-amine], a half-maximal effect (EC50) was put at 8 nM.

`CCCC(CC)Oc1nc(N)c2ncc(Cc3cnc(N4CCC(N(C)C)CC4)c(C)c3)n2n1` (stereo not drawn) [Compound B163, 7-((6-(4-(dimethylamino)piperidin-1-yl)-5-methylpyridin-3-yl)methyl)-2-(hexan-3-yloxy)imidazo[2,1-f][1,2,4]triazin-4-amine] gave an EC50 of 2.5 nM.

`CCCC(CC)Oc1nc(N)c2ncc(Cc3cnc(N4CCC(CN(C)C)CC4)c(C)c3)n2n1` (stereo not drawn) [Compound B164, 7-((6-(4-((dimethylamino)methyl)piperidin-1-yl)-5-methylpyridin-3-yl)methyl)-2-(hexan-3-yloxy)imidazo[2,1-f][1,2,4]triazin-4-amine] displayed an EC50 of 4.1 nM.

Regarding `CCCC(C)Nc1nc(N)c2ncc(Cc3cnc(N4CCC(NC)CC4)c(C)c3)n2n1` (stereo not drawn) [Compound B166, 7-((5-methyl-6-(4-(methylamino)piperidin-1-yl)pyridin-3-yl)methyl)-N2-(pentan-2-yl)imidazo[2,1-f][1,2,4]triazine-2,4-diamine], a half-maximal response (EC50) required 2.6 nM. This EC50 is about 1.6-fold lower than that of the compound before.

`Cc1cc(Cc2cnc3c(N)nc(OC4CCCCC4)nn23)cnc1N1CCNCC1` [Compound B167, 2-(cyclohexyloxy)-7-((5-methyl-6-(piperazin-1-yl)pyridin-3-yl)methyl)imidazo[2,1-f][1,2,4]triazin-4-amine] showed an EC50 of 497 nM. Compared with the last compound, the EC50 is about 190-fold higher.

As to `CCCCOc1nc(N)c2ncc(Cc3cnc(N4C[C@@H]5C[C@H]4CN5)c(C)c3)n2n1` [Compound B168, 7-((6-((1S,4S)-2,5-diazabicyclo[2.2.1]heptan-2-yl)-5-methylpyridin-3-yl)methyl)-2-butoxyimidazo[2,1-f][1,2,4]triazin-4-amine], the EC50 came to 124 nM.

Compound `CCCC(CC)Oc1nc(N)c2ncc(Cc3cnc(N4CCN(C(=O)CN(C)C)CC4)c(C)c3)n2n1` (stereo not drawn) [Compound B169, 1-(4-(5-((4-amino-2-(hexan-3-yloxy)imidazo[2,1-f][1,2,4]triazin-7-yl)methyl)-3-methylpyridin-2-yl)piperazin-1-yl)-2-(dimethylamino)ethan-1-one] gave an EC50 of 2.9 nM.

`CCCCOc1nc(N)c2ncc(Cc3cnc(N4CCN(C(=O)CN(CC)CC)CC4)c(C)c3)n2n1` [Compound B170, 1-(4-(5-((4-amino-2-butoxyimidazo[2,1-f][1,2,4]triazin-7-yl)methyl)-3-methylpyridin-2-yl)piperazin-1-yl)-2-(diethylamino)ethan-1-one] returned an EC50 of 29 nM. This EC50 lies about 10-fold higher than the previous one.

Compound `Cc1cc(Cc2cnc3c(N)nc(OC4CCCC4)nn23)cnc1N1CCNCC1` [Compound B172, 2-(cyclopentyloxy)-7-((5-methyl-6-(piperazin-1-yl)pyridin-3-yl)methyl)imidazo[2,1-f][1,2,4]triazin-4-amine] gave an EC50 of 260 nM. Compared with the last compound, the EC50 is about 9-fold higher.

For `COCC(C)Oc1nc(N)c2ncc(Cc3cnc(N4CCNCC4)c(C)c3)n2n1` (stereo not drawn) [Compound B174, 2-((1-methoxypropan-2-yl)oxy)-7-((5-methyl-6-(piperazin-1-yl)pyridin-3-yl)methyl)imidazo[2,1-f][1,2,4]triazin-4-amine], the EC50 worked out at 48 nM.

The record behind these values is patent US12612407B2, “Imidazo[2,1-f][1,2,4]triazin-4-amine derivatives as TLR7 agonist” (BEIGENE, LTD., priority 2020, dated 2026).
